Measured values as given in patent US9243039B2, “Bipartite inhibitors of bacterial RNA polymerase: Sal-target-inhibitor/nucleoside-analog-inhibitor conjugates” (priority 2012, dated 2016).

Experiments:
[1] = system: Gram-positive and Gram-negative bacterial RNAP; settings: in words, reported previously (Miao et al. 1997); cited from earlier work
Pseudomonas aeruginosa = assay: Antibacterial activity, broth microdilution, Pseudomonas aeruginosa; type: cell-based; settings: in words, Gram-negative bacterial pathogen
Text: (§1) Antibacterial activity was quantified using broth microdilution [Clinical and Laboratory Standards Institute (CLSUNCCLS), Methods for Dilution Antimicrobial Susceptibility Tests for Bacteria That Grow Aerobically; Approved Standard, Eighth Edition. CLIS Document M07-A8 (CLIS, Wayne Pa.), 2009]. Assays with Enterobacter cloacae ATCC 13047, Pseudomonas aeruginosa ATCC10145, and Escherichia coli D21f2to1C, employed a starting cell density of 2-5×10^5 cfu/ml, Mueller Hinton II cation adjusted broth (BD Biosciences, Inc.), and an air atmosphere. Assays with Haemophilus influenzae ATCC49247 and Neisseria gonorrhoeae ATCC 19424 employed a starting cell density of 2-5×10^5 cfu/ml, Haemophilus Test Medium broth (Barry et al., 1993) and a 5% CO2/95% air atmosphere. MIC50 was defined as the minimal concentration resulting in ≧50% inhibition of bacterial growth.

[2] = system: mutants resistant to other RNAP inhibitors; settings: disclosed herein
RNAP = assay: Mechanism of inhibition of RNAP by Sal; type: biochemical; settings: in words
Escherichia coli RNAP = Escherichia coli RNAP (Escherichia coli, UniProt P0A8T7+P0A8V2); assay: Fluorescence-detected RNAP assay, Escherichia coli RNAP; type: biochemical; settings: fluorescent-detected RNAP assays
Chain of Escherichia coli RNAP (P0A800 whole entry, the tested form may be a part): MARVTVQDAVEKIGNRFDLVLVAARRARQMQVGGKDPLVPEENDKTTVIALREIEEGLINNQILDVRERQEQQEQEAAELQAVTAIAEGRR
Chain of Escherichia coli RNAP (P00579 whole entry, further chain, the tested form may be a part): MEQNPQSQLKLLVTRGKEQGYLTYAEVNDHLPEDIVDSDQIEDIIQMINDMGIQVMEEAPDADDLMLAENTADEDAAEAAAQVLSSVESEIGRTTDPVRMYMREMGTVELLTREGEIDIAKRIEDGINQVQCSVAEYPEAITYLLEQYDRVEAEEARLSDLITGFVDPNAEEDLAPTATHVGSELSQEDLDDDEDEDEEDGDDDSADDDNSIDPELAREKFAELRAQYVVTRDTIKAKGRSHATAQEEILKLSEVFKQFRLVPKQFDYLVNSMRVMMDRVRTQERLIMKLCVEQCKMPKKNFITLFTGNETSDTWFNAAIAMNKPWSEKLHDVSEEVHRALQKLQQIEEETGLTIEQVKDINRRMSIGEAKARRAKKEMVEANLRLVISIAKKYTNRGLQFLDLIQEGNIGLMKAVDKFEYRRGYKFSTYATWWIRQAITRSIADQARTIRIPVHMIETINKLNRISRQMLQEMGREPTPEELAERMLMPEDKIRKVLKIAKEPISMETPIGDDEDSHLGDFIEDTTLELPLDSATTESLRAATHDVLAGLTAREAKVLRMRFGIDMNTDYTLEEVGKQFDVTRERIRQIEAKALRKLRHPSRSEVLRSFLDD
Chain of Escherichia coli RNAP (P0A8V2 whole entry, the tested form may be a part): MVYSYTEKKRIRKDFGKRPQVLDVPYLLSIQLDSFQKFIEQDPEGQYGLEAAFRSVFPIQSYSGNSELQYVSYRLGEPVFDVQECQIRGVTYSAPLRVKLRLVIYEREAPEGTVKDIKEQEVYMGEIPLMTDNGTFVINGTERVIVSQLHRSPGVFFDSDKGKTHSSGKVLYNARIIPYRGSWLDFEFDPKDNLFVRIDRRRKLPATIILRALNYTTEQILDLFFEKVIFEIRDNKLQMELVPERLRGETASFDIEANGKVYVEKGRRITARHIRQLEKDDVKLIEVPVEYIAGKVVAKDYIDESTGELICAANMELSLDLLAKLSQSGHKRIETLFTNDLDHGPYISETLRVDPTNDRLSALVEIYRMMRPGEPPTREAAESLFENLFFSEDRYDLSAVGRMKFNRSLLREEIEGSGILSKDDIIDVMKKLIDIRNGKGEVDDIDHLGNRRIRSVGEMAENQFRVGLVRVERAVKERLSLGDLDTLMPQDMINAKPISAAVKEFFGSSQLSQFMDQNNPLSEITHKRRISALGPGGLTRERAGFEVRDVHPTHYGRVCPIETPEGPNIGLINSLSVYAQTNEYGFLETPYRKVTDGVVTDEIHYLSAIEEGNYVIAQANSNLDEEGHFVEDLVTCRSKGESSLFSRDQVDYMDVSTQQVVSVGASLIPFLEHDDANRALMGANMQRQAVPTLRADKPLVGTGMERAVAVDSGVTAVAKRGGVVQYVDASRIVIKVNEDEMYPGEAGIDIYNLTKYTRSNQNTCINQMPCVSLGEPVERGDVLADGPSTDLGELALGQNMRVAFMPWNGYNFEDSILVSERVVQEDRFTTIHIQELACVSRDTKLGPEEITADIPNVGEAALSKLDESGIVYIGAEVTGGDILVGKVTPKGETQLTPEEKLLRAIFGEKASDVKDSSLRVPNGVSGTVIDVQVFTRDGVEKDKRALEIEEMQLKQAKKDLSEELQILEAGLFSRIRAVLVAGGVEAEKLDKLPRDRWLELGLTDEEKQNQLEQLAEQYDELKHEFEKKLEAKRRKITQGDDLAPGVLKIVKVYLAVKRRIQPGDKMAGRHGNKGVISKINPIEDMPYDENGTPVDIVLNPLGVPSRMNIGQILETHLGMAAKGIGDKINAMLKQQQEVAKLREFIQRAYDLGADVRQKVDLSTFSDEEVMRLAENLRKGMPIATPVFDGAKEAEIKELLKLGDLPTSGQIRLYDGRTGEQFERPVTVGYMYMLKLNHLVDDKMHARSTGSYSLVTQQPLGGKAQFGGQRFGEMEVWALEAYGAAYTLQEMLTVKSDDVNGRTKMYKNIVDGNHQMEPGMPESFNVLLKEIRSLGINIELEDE
Chain of Escherichia coli RNAP (P0A8T7 whole entry, the tested form may be a part): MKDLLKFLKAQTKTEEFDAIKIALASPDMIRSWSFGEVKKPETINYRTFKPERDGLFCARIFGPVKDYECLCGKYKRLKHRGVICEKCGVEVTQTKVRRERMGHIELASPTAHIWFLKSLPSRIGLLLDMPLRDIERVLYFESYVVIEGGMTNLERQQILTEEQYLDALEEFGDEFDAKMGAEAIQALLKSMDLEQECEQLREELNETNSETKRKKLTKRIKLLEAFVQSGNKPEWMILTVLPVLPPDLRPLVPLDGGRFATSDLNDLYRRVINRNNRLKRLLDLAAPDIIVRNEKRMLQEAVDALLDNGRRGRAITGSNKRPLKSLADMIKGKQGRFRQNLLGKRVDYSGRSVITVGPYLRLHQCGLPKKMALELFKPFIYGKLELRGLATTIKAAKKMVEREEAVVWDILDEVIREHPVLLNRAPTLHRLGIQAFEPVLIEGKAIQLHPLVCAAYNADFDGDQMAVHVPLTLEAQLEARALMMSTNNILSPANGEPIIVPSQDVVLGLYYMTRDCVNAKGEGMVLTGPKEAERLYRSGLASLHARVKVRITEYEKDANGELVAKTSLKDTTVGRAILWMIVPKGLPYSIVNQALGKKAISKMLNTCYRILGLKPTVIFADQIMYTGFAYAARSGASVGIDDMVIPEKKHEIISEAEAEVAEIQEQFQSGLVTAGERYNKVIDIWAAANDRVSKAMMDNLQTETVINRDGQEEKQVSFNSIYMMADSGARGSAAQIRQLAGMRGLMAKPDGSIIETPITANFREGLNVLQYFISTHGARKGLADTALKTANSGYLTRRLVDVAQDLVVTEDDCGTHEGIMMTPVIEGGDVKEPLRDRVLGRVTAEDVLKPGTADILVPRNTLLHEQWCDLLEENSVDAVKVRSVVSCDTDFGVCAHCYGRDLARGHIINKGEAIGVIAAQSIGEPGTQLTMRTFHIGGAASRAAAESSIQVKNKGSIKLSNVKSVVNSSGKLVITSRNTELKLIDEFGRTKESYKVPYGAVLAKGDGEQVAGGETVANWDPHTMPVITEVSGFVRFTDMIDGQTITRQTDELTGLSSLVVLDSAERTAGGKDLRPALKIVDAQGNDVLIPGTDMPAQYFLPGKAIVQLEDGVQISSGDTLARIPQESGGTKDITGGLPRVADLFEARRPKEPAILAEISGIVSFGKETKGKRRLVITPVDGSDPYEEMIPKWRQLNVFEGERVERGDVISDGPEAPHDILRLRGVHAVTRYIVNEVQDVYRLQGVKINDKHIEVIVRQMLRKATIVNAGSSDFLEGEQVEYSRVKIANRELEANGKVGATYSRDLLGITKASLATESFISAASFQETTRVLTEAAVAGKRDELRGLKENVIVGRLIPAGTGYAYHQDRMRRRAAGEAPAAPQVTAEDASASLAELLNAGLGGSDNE
Chain of Escherichia coli RNAP (P0A7Z4 whole entry, further chain, the tested form may be a part): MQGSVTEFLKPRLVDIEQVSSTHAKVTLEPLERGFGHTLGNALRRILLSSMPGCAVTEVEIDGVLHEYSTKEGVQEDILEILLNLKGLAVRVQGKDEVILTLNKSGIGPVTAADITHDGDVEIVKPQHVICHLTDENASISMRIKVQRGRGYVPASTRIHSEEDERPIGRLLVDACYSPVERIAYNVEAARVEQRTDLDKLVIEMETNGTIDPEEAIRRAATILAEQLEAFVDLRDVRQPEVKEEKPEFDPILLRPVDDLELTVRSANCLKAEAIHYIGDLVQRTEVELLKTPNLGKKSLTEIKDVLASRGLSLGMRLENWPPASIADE
Procedure: Fluorescence-detected RNAP assays with Escherichia coli RNAP were performed by a modification of the procedure of Kuhlman et al., 2004 [Kuhlman et al., Anal. Biochem. 324:183-190, 2004]. Reaction mixtures contained (20 μl): […] test compound, 75 nM Escherichia coli RNAP […] holoenzyme, 20 nM 384 by DNA fragment containing the bacteriophage T4 N25 promoter, 100 μM ATP, 100 μM GTP, 100 μM UTP, 100 μM CTP, 50 mM Tris-HCl, pH 8.0, 100 mM KCl, 10 mM MgCl2, 1 mM DTT, 10 μg/ml bovine serum albumin, and 5.5% glycerol. Reaction components other than DNA and NTPs were pre-incubated for 10 min at 37° C. Reactions were carried out by addition of DNA and incubation for 5 min at 37° C., followed by addition of NTPs and incubation for 60 min at 37° C. DNA was removed by addition of 1 μl 5 mM CaCl2 and 2 U DNaseI (Ambion, Inc.), followed by incubation for 90 min at 37° C. RNA was quantified by addition of 100 μl RiboGreen RNA Quantitation Reagent (Invitrogen, Inc.; 1:500 dilution in Tris-HCl, pH 8.0, 1 mM EDTA), followed by incubation for 10 min at 25° C., followed by measurement of fluorescence intensity [excitation wavelength=485 nm and emission wavelength=535 nm; QuantaMaster QM1 spectrofluorometer (PTI, Inc.)].
(§2) Half-maximal inhibitory concentrations (IC50s) were calculated by non-linear regression in SigmaPlot (SPSS, Inc.).

[3] = system: mutants resistant to other RNAP inhibitors; settings: Ebright et al., WO/2012/129173; cited from earlier work
[4] = system: Escherichia coli D21f2toIC; assay: Antibacterial activity, broth microdilution, Escherichia coli D21f2tolC; type: cell-based; settings: minimal concentration resulting in ≧50% inhibition of bacterial growth
Text: as §1

Neisseria gonorrhoeae = assay: Antibacterial activity, broth microdilution, Neisseria gonorrhoeae; type: cell-based; settings: in words, Gram-negative bacterial pathogen
Text: as §1

[5] = system: Gram-positive bacterial pathogens; settings: in words, reported previously (Trischman 1994; Moore 1999); cited from earlier work
Haemophilus influenzae = assay: Antibacterial activity, broth microdilution, Haemophilus influenzae; type: cell-based; settings: in words, Gram-negative bacterial pathogen
Text: as §1

Vero E6 ATCC CRL1586 = assay: Cytotoxicity to mammalian cells in culture (CellTiter96); type: cell-based
Text: MICs for mammalian cells (Vero E6) in culture were quantified using CellTiter96 assay (Promega. Inc.; procedures as specified by the manufacturer). Screening data for SalA and SalB (compounds 1 and 2) and representative compounds of this invention (compounds 3-9) are presented in Tables 1-2: […]

human RNAP I/II/III = assay: Radiochemical assay with human RNAP I, II and III (HeLaScribe nuclear extract); type: biochemical
Procedure: Radiochemical assays with human RNAP I, II, and III were performed essentially as described [Sawadogo and Roeder, Cell 43:165-75, 1985]. Reaction mixtures contained (20 μl): 0-100 μM test compound, 8 U HeLaScribe Nuclear Extract (Promega, Inc.), 1 μg human placental DNA (Sigma-Aldrich), 400 μM ATP, 400 μM [α^32P]UTP (0.11 Bq/fmol), 400 μM CTP, 400 μM GTP, 50 mM Tris-HCl, pH 8.0, 7 mM HEPES-NaOH, 70 mM (NH4)2SO4, 50 mM KCl, 12 mM MgCl2, 5 mM DTT, 0.1 mM EDTA, 0.08 mM phenylmethylsulfonyl fluoride, and 16% glycerol. Reaction components other than DNA and NTPs were pre-incubated 10 min at 30° C., DNA was added and reaction mixtures were incubated 15 min at 30° C., NTPs were added and reaction mixtures were incubated 60 min at 30° C. Reaction mixtures were spotted on DE81 filter discs (Whatman, Inc.; pre-wetted with water) and incubated 1 min at room temperature. Filters were washed with 3×3 ml Na2HPO4, 2×3 ml water, and 3 ml ethanol, using a filter manifold (Hoefer, Inc.). Filters were placed in scintillation vials containing 10 ml Scintiverse BD Cocktail (Thermo Fisher, Inc.), and radioactivity was quantified by scintillation counting (LS6500; Beckman-Coulter, Inc.).
as §2

[6] = system: Enterobacter cloacae ATCC 13047; assay: Antibacterial activity, broth microdilution, Enterobacter cloacae; type: cell-based
Text: as §1

Salinamide A [SalA (1)]
inhibition of Gram-positive and Gram-negative bacterial RNAP in vitro [1]: inhibits | antibacterial activity against Pseudomonas aeruginosa (Pseudomonas aeruginosa): exhibit antibacterial activity | cross-resistance to Sal of streptolydigin-resistant, myxopyronin-resistant, and lipiarmycin-resistant mutants [2]: do not exhibit cross-resistance | inhibition of formation of the RNAP-promoter open complex in transcription initiation (RNAP): does not inhibit | inhibition of nucleotide addition in both transcription initiation and transcription elongation (RNAP): inhibits | inhibition of wild-type RNAP versus RNAP-derivative having a deletion of the trigger loop (RNAP): equal extents | mode of transcription inhibition with respect to NTP substrate (RNAP): noncompetitive | IC50 (Escherichia coli RNAP): 1000 nM | cross-resistance to Sal of CBR703-resistant mutants [3]: not cross-resistant | cross-resistance to Sal of rifamycin-resistant mutants [3]: not cross-resistant | MIC50 Escherichia coli D21f2toIC [4]: 0.024 µg/mL | antibacterial activity against Neisseria gonorrhoeae (Neisseria gonorrhoeae): exhibit antibacterial activity | antibacterial activity against Gram-positive bacterial pathogens [5]: exhibit antibacterial activity | antibacterial activity against Haemophilus influenzae (Haemophilus influenzae): exhibit antibacterial activity | inhibition of growth of mammalian cells in culture (Vero E6 ATCC CRL1586; in words): do not detectably inhibit growth | MIC50 Vero E6 ATCC CRL1586 (Vero E6 ATCC CRL1586; mammalian cells in culture): >100 µg/mL | IC50 (human RNAP I/II/III): > 100000 nM | inhibition of human RNAP I, II, and III (human RNAP I/II/III; in words): do not detectably inhibit | antibacterial activity against Enterobacter cloacae ([6]; in words, Gram-negative bacterial pathogen): exhibit antibacterial activity | MIC50 Enterobacter cloacae ATCC 13047 ([6]; minimal concentration resulting in ≧50% inhibition of bacterial growth): 1.56 µg/mL
